The values below come from PubChem BioAssay (NCI).

Each structure is given as a SMILES string.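 Dose response: 5 concentrations. Exposure: 48 h. Format: 96-well plates. Endpoint: linear interpolation; highest concentration if not reached. The concentration for 50% growth inhibition is given as GI50. At the TGI there is no net growth.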 Bounds are passed on as bounds.

Test systems include UO-31 renal; UACC-257 melanoma; SN12C renal; MCF7 breast; SK-MEL-28 melanoma; MOLT-4 leukemia; DU-145 prostate; CCRF-CEM leukemia; HCT-116 colon; T-47D breast.
Assay in all cases: growth of human tumour cells (NCI), 48 h

As to `Nc1nc(Cl)cc(NC23CC4CC(CC(C4)C2)C3)n1`, the TGI in the experiment with UO-31 renal, in the experiment with UACC-257 melanoma, in the experiment with SN12C renal, in the experiment with MCF7 breast, with SK-MEL-28 melanoma and with MOLT-4 leukemia was above 100 µM throughout. For the same compound, the TGI in the experiment with DU-145 prostate, in the experiment with CCRF-CEM leukemia, in the experiment with HCT-116 colon and in the experiment on T-47D breast was above 100 µM each time.
Take `CC(C)/C(Cl)=N\OC(NC(=O)P(=O)(c1ccccc1)c1ccccc1)(C(F)(F)F)C(F)(F)F`: the TGI in the experiment on UO-31 renal was determined as 21 µM; in the experiment with UACC-257 melanoma, 42.2 µM; in the experiment with SN12C renal it was 26.6 µM; with MCF7 breast, 34 µM; with SK-MEL-28 melanoma, 28.2 µM; with MOLT-4 leukemia, 39.6 µM. Also, the TGI in the experiment with DU-145 prostate is 72 µM; in the experiment on CCRF-CEM leukemia, 22.5 µM; in the experiment on HCT-116 colon, 21.5 µM; in the experiment with T-47D breast, above 100 µM.
Take `O=[N+]([O-])c1cccc(N=Nc2c(O)c(S(=O)(=O)O)cc3cc(S(=O)(=O)O)ccc23)c1`: the TGI in the experiment on UO-31 renal, in the experiment with UACC-257 melanoma, in the experiment with SN12C renal, with MCF7 breast, in the experiment on SK-MEL-28 melanoma and in the experiment with MOLT-4 leukemia was above 100 µM in each case. In addition, the TGI in the experiment with DU-145 prostate, with CCRF-CEM leukemia, in the experiment on HCT-116 colon and in the experiment with T-47D breast was above 100 µM throughout.
As for `C=C=C(CC(CC(=C)Br)(C(=O)OC)C(=O)OC)S(=O)(=O)c1ccccc1`, the TGI in the experiment on UO-31 renal was 3.69 µM; in the experiment on UACC-257 melanoma, 5.88 µM; with SN12C renal, 3.13 µM; in the experiment with MCF7 breast it was 16.4 µM; in the experiment with SK-MEL-28 melanoma it was 3.23 µM; in the experiment with MOLT-4 leukemia, above 100 µM. Also, the TGI with DU-145 prostate is 3.35 µM; with CCRF-CEM leukemia it was above 100 µM; in the experiment on HCT-116 colon it was 2.22 µM; in the experiment on T-47D breast, above 100 µM.
As for `COc1ccc(Nc2ccc3ccccc3c2-c2c(O)ccc3ccccc23)cc1`, the TGI stood at 26.4 µM with UO-31 renal; 58.9 µM in the experiment with UACC-257 melanoma; 35.1 µM with SN12C renal; 25.6 µM in the experiment on MCF7 breast; 31.7 µM in the experiment on SK-MEL-28 melanoma; 34.3 µM with MOLT-4 leukemia. The TGI in the experiment on DU-145 prostate stood at 33.8 µM; in the experiment with CCRF-CEM leukemia it was 46.8 µM; with HCT-116 colon it was 40.5 µM; in the experiment on T-47D breast, 34 µM.
For `CN(C)CCCNc1ccc2nnn3c4ccc(O)cc4c(=O)c1c23`, the TGI was found to be 9.79 µM in the experiment on UO-31 renal; 29.8 µM in the experiment with UACC-257 melanoma; 18.8 µM in the experiment on SN12C renal; 24.8 µM with MCF7 breast; 22.5 µM in the experiment on SK-MEL-28 melanoma; 9.3 µM with MOLT-4 leukemia. Also, the TGI in the experiment with DU-145 prostate is 18.6 µM; in the experiment on CCRF-CEM leukemia, 38.2 µM; in the experiment with HCT-116 colon, 16 µM; in the experiment with T-47D breast, 40.9 µM.
Regarding `O=C(N/N=C/C=C/c1ccccc1)c1ccccc1Nc1ccccc1C(=O)N/N=C/C=C/c1ccccc1`, the TGI with UO-31 renal, in the experiment on UACC-257 melanoma, in the experiment on SN12C renal, in the experiment on MCF7 breast, in the experiment with SK-MEL-28 melanoma and in the experiment on MOLT-4 leukemia was above 100 µM throughout. In addition, the TGI in the experiment on DU-145 prostate, with CCRF-CEM leukemia, in the experiment with HCT-116 colon and in the experiment on T-47D breast was above 100 µM each time.
In the case of `C#CCn1c(=O)c(C)cn(/C(=C\C(=O)OCC)C(=O)OCC)c1=O`, the TGI in the experiment with UO-31 renal is 25.5 µM; in the experiment on UACC-257 melanoma, 28.2 µM; in the experiment with SN12C renal it was 33.9 µM; in the experiment with MCF7 breast, 11.9 µM; in the experiment on SK-MEL-28 melanoma, 31 µM; in the experiment with MOLT-4 leukemia, above 26.5 µM. In addition, the TGI with DU-145 prostate amounted to 35 µM; in the experiment with CCRF-CEM leukemia, 8 µM; in the experiment on HCT-116 colon, 10.3 µM; in the experiment on T-47D breast, 5.95 µM. The GI50 in the experiment on SK-MEL-28 melanoma was 14.5 µM; in the experiment with CCRF-CEM leukemia, 0.7 µM.
As for `COc1ccc(OC)c(SC(CC(=O)c2ccccc2)c2ccccc2)c1` (configuration not stated), the TGI with UO-31 renal was 24.7 µM; in the experiment with UACC-257 melanoma it was 30.7 µM; in the experiment on SN12C renal, 40.6 µM; in the experiment on MCF7 breast, 13.7 µM; with SK-MEL-28 melanoma it was 32.6 µM; in the experiment on MOLT-4 leukemia, above 100 µM. The TGI with DU-145 prostate is 21.9 µM; in the experiment with CCRF-CEM leukemia, above 100 µM; in the experiment on HCT-116 colon it was 11 µM; in the experiment on T-47D breast, 35.8 µM.
As for `C=CCP(=O)(CC=C)C(Cl)Cl`, the TGI in the experiment on UO-31 renal, with UACC-257 melanoma, in the experiment with SN12C renal, in the experiment on MCF7 breast, with SK-MEL-28 melanoma and in the experiment with MOLT-4 leukemia was above 100 µM each time. Further, the TGI in the experiment with DU-145 prostate, in the experiment on CCRF-CEM leukemia, with HCT-116 colon and in the experiment on T-47D breast was above 100 µM throughout.
Turning to `CCOP(=O)(O)CN1CCNCCN(CP(=O)(O)OCC)CCNCC1`, the TGI with UO-31 renal, in the experiment with UACC-257 melanoma, in the experiment with SN12C renal, in the experiment with MCF7 breast, in the experiment with SK-MEL-28 melanoma and in the experiment on MOLT-4 leukemia was above 100 µM each time. In addition, the TGI with DU-145 prostate, with CCRF-CEM leukemia, in the experiment on HCT-116 colon and in the experiment on T-47D breast was above 100 µM throughout.
For `C=C(C)[C@H]1C2=CC(C)=C(O2)[C@@H](O[C@@H]2c3oc(cc3C)[C@H](C(=C)C)[C@H]3C=C(CC[C@H]2C(=C)C)C(=O)O3)[C@H](C(=C)C)CCC2=C[C@H]1OC2=O`, the TGI in the experiment with UO-31 renal, with UACC-257 melanoma, with SN12C renal, with MCF7 breast, in the experiment on SK-MEL-28 melanoma and with MOLT-4 leukemia was above 100 µM throughout. Also, the TGI in the experiment with DU-145 prostate, in the experiment on CCRF-CEM leukemia, in the experiment on HCT-116 colon and in the experiment on T-47D breast was above 100 µM each time.
On to `Cc1nn(-c2ccccc2)c(C)c1/C=N/N=C1\S/C(=C\c2ccc(Cl)cc2)C(=O)N1c1ccccc1`, for which the TGI in the experiment with UO-31 renal is above 100 µM; in the experiment on UACC-257 melanoma, above 100 µM; in the experiment on SN12C renal it was above 100 µM; in the experiment with MCF7 breast it was above 100 µM; with SK-MEL-28 melanoma, above 100 µM; in the experiment on MOLT-4 leukemia it was 27.2 µM. Besides, the TGI with DU-145 prostate, in the experiment on CCRF-CEM leukemia, in the experiment with HCT-116 colon and in the experiment on T-47D breast was above 100 µM each time.
